The results in this text go back to patent US5981489A, “Non-aqueous protic peptide formulations” (Alza Corporation, priority 1997, dated 1999).

Common to all, as to format: physicochemical
A short description of data set [1]: Stability of goserelin formulations, one month at 37° C., RP-HPLC. The conditions noted are these: for % CONCENTRATION: method called unreliable. As for the experimental part: (§1) Stability samples were analyzed using RP-HPLC. The area under the curve for the leuprolide peak divided by the sum of the areas under the curve of all peaks gave % purity. [It should be noted that the data for % concentration presented with the % purity data (Examples 6, 8, 9 and 10) are inconclusive. The analysis methods used to determine % concentration in these experiments were unreliable.]
Formulations of 40-45% (w/w) goserelin in either PEG 600 or PG/acetate buffer (30:70) were prepared as described above and placed in polymeric containers. The containers were stored at 37° C. for one month in an incubator. The samples were analyzed using RP-HPLC to determine the chemical stability of the aged formulations.

Data set [2] can be described thus: Gelation of non-aqueous protic solvent formulations on adding polar aprotic solvent. The source says: Thus, these solvents have an anti-gellant effect.
Data set [3] is described as follows: Stability of nafarelin formulations, one month at 37° C., RP-HPLC. On the procedure: as §1
Formulations of 15% (w/w) nafarelin in either PEG 600 or propylene glycol were prepared as described above for leuprolide and placed in polymeric containers.
The containers were stored at 37° C. for one month in an incubator.
The samples were analyzed using RP-HPLC to determine the chemical stability of the aged formulations.

Where [4] appears, read: 40-45% (w/w) in vehicle PEG 600, one month at 37° C.
Setting [5] is: 40-45% (w/w) in vehicle PG/Acetate Buffer(30:70), one month at 37° C.
Where [6] appears, read: 15% (w/w) in vehicle PEG 600, one month at 37° C.
The mark [7] stands for this setting: 15% (w/w) in vehicle PG, one month at 37° C.

Turning to `CC(C)C[C@H](NC(=O)[C@@H](COC(C)(C)C)NC(=O)[C@H](Cc1ccc(O)cc1)NC(=O)[C@H](CO)NC(=O)[C@H](Cc1c[nH]c2ccccc12)NC(=O)[C@H](Cc1cnc[nH]1)NC(=O)[C@@H]1CCC(=O)N1)C(=O)N[C@@H](CCCNC(=N)N)C(=O)N1CCC[C@H]1C(=O)NNC(N)=O` [goserelin], the “% PURITY” value in data set [1] (setting [4]) is 99.3%; in data set [1] (setting [5]), 98.2%. In addition, the “% CONCENTRATION” value in data set [1] (setting [4]) is 23.6%; in data set [1] (setting [5]) it was 49.7%. Further, in data set [2], the “effect of adding polar aprotic solvents such as DMSO on gelation of the formulation” value (from here on “effect”) was “prevents gelation”.
For `CCNC(=O)[C@@H]1CCCN1C(=O)[C@H](CCCNC(=N)N)NC(=O)[C@H](CC(C)C)NC(=O)[C@@H](CC(C)C)NC(=O)[C@H](Cc1ccc(O)cc1)NC(=O)[C@H](CO)NC(=O)[C@H](Cc1c[nH]c2ccccc12)NC(=O)[C@H](Cc1c[nH]cn1)NC(=O)[C@@H]1CCC(=O)N1` [leuprolide], the “effect” value in data set [2] is “prevents gelation”.
As for `CC(C)C[C@H](NC(=O)[C@@H](Cc1ccc2ccccc2c1)NC(=O)[C@H](Cc1ccc(O)cc1)NC(=O)[C@H](CO)NC(=O)[C@H](Cc1c[nH]c2ccccc12)NC(=O)[C@H](Cc1c[nH]cn1)NC(=O)[C@@H]1CCC(=O)N1)C(=O)N[C@@H](CCCNC(=N)N)C(=O)N1CCC[C@H]1C(=O)NCC(N)=O` [nafarelin], the “% CONCENTRATION” value came out at 15.8% in data set [3] (setting [6]) and 12.9% in data set [3] (setting [7]). The “% PURITY” value in data set [3] (setting [6]) and in data set [3] (setting [7]) was 99.4% in each case.
Take calcitonin: the “effect” value in data set [2] is recorded as “prevents gelation”.
